Experimental data as given in ChEMBL document CHEMBL2412998, “Search for a novel SIRT1 activator: structural modification of SRT1720 and biological evaluation” (Bioorg Med Chem Lett, 2013).
Active and inactive are the calls of the source. The rule behind the calls is not given here.

What was measured:
[1] = target: T1, NAD-dependent protein deacetylase sirtuin-1 (Homo sapiens) (UniProt Q96EB6); experiment: Activation of human recombinant SIRT1 at 10 uM preincubated for 60 mins prior to substrate addition measured after 60 mins by fluorescence assay
T1 sequence (whole entry): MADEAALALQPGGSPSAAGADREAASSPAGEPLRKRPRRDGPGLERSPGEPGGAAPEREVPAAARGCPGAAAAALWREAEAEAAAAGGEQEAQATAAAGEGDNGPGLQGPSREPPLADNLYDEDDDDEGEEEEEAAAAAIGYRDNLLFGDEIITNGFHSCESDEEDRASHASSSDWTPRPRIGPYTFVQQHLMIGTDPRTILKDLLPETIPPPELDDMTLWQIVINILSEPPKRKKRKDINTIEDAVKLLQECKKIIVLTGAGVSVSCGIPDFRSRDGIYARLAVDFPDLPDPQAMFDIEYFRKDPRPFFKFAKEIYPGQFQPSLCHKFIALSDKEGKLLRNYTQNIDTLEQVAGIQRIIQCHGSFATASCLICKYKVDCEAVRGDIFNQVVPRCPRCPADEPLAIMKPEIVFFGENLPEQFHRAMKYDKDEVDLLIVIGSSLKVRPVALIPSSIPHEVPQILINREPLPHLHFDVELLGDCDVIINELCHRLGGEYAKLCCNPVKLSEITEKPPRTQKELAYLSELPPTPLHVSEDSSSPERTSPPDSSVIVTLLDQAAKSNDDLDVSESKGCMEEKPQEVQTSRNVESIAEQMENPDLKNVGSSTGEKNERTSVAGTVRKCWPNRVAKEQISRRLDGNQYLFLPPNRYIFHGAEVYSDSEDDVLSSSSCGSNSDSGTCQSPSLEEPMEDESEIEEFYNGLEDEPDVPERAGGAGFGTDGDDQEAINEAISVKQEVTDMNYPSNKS

[2] = target: T1, NAD-dependent protein deacetylase sirtuin-1 (Homo sapiens); experiment: Activation of human recombinant SIRT1 at 100 uM preincubated for 60 mins prior to substrate addition measured after 60 mins by fluorescence assay

SMILES | Activity [1] | Activity [2]
O=C(Nc1ccccc1-c1cn2c(CN3CCNCC3)csc2n1)c1ccnc2ccccc12 | inactive | –
O=C(Nc1ccc(-c2cn3c(CN4CCNCC4)csc3n2)cc1)c1cnc2ccccc2n1 | inactive | –
O=C(Nc1cccc(-c2cn3c(CN4CCNCC4)csc3n2)c1)c1cc2ccccc2[nH]1 | inactive | –
O=C(Nc1cccc(-c2cn3c(CN4CCCC4)csc3n2)c1)c1cnc2ccccc2n1 | inactive | –
O=C(Nc1cccc(-c2cn3c(CN4CCNCC4)csc3n2)c1)c1ccnc2ccccc12 | inactive | –
O=C(Nc1cccc(-c2cn3c(CN4CCNCC4)csc3n2)c1)c1cnc2ccccc2c1 | 140% | Active
COCCOCOCc1csc2nc(-c3ccccc3NC(=O)c3cnc4ccccc4n3)cn12 | inactive | –
O=C(Nc1cccc(-c2cn3c(CN4CCNCC4)csc3n2)c1)c1cnc2ccccc2n1 | Active | Active
O=C(Nc1ccccc1-c1cn2c(CN3CCNCC3)csc2n1)c1ccc2ccccc2c1 | inactive | –
O=C(Nc1ccccc1-c1cn2c(CN3CCNCC3)csc2n1)c1cnc2ccccc2n1 | 160% | Active
O=C(Nc1cccc(-c2cn3c(CN4CCNCC4)csc3n2)c1)c1cnccn1 | inactive | –
O=C(Nc1cccc(-c2cn3c(CN4CCNCC4)csc3n2)c1)c1ccc2ccccc2n1 | 140% | Active
COCc1csc2nc(-c3ccccc3NC(=O)c3cnc4ccccc4n3)cn12 | inactive | –
O=C(Nc1cccc(-c2cn3c(CN4CCOCC4)csc3n2)c1)c1cnc2ccccc2n1 | inactive | –
O=C(Nc1ccccc1-c1cn2c(CN3CCNCC3)csc2n1)c1cccc2ccccc12 | inactive | –
CNCc1csc2nc(-c3ccccc3NC(=O)c3cnc4ccccc4n3)cn12 | inactive | –
O=C(Nc1cccc(-c2cn3c(CN4CCCCC4)csc3n2)c1)c1cnc2ccccc2n1 | inactive | –
